{"source": "patent US20260234116A1", "about": "“CYTOTOXIC EPOXYKETONE COMPOUNDS, PRECURSORS, COMPOSITIONS, AND METHODS OF USE” (Memorial Sloan-Kettering Cancer Center, priority 2023, published 2026)", "key": {"[1]": {"experiment": "Stability of β-ketoacid substrates (decarboxylation, 1H-NMR or SPE-MS/MS)", "format": "physicochemical", "procedure": "To assess rates of decarboxylation under conditions relevant to storage, biochemical assays, and cellular assays, we investigated the stability of eponemycin-based β-ketoacids 11a and 11c under a variety of conditions as shown in below Table C.\nFor samples stored neat, β-ketoacid 11 (lyophilized powder) was aliquoted into 1.5-2 mg samples in glass vials and placed under Ar. Samples were stored on the bench top (20-25° C.), in at 4° C. refrigerator or in a −20° C. freezer. At each time point, an entire aliquot was dissolved in CD3OD (600 μL) analyzed by ^1H-NMR for decarboxylation to the corresponding isopropyl ketone byproduct 22. The degree of decarboxylation was determined by comparing integrations of two singlet peaks at 1.40 and 1.33 ppm, arising from the α,α-dimethyl groups in the β-ketoacid 11, to two doublet peaks at 1.09 and 1.06 ppm, arising from the isopropyl methyl groups in the decarboxylation product 22. A septuplet corresponding to the methine proton of the isopropyl group was also observed at 2.91 ppm.\nFor samples stored in PBS, aliquots of β-ketoacid 11 were dissolved in deuterated PBS (600 μL) and incubated in a 37° C. shaking incubator. At each time point, one aliquot was removed and analyzed by ^1H-NMR as above. NMR changes observed in deuterated PBS were similar to those observed in CD3OD above.\nFor samples stored in RPMI, β-ketoacid 11 (lyophilized powder) was dissolved in EtOH to a working stock concentration of 20 mM. The sample was diluted in RPMI to 100 μM (1000 μL) and incubated at 37° C. At each time point, an aliquot (50 μL) was removed from the master sample, transferred to a 96-well plate, quenched with 4 vol MeOH, centrifuged at 4,000 g to precipitate debris, and immediately analyzed by SPE-MS/MS to quantitate β-ketoacid 11 remaining."}, "EpnF": {"biological_target": "EpnF (Streptomyces hygroscopicus, UniProt V5RMU9)", "sequence (V5RMU9 entry or part of it)": "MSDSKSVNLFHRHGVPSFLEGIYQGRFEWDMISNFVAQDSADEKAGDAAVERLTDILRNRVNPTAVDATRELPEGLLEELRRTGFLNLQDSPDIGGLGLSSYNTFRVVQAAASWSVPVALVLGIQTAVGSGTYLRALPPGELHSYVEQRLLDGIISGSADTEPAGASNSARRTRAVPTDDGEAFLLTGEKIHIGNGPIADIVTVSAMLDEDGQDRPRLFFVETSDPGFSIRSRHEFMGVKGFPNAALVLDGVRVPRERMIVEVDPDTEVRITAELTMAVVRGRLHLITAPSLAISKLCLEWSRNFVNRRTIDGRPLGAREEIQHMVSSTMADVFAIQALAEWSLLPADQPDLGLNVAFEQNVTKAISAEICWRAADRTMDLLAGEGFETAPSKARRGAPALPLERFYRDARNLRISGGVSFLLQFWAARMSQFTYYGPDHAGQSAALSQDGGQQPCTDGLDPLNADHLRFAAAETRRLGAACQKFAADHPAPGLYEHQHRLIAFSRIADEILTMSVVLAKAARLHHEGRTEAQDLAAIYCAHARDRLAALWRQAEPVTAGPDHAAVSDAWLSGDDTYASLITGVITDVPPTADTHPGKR", "experiment": "Semiquantitative epoxide capture assay (EpnF-catalyzed epoxyketone formation)", "format": "biochemical", "conditions": "1 μM EpnF, 250 μM β-ketoacid substrate, 1 h; positive control 11n (FIG. 1)", "procedure": "Recombinant EpnF was diluted to 1 μM in 180 μL EpnF Buffer in an 1.5 mL Eppendorf tube. The β-ketoacid 11 was added at various concentrations to a total reaction volume of 200 μL. The mixture was incubated in a heated shaker at 37° C. and 225 rpm for 1 h. The reaction mixture (30 μL×3 technical replicates) was transferred to a white, opaque 96-well plate (PerkinElmer, OptiPlate-96). Each plate also contained 30 μL×3 technical replicates of EpnF Buffer as a negative control. To each well, 15 μL of 125 mM nicotinamide in EpnF Buffer was added and mixed by pipetting. The plate was sealed with an adhesive foil cover (VWR Adhesive Foil for Microplates) and heated in an oven at 80° C. for 1 h. The plate was cooled to rt and 25 μL of 15% (v/v) acetophenone in EtOH and 25 μL of 1 M potassium hydroxide in EtOH were added to each well, then mixed by pipetting. The plate was cooled on ice for 10 min, then 125 μL formic acid was added to each well. The plate was resealed and heated in an oven at 100° C. for 5 min. The plate was cooled on ice for 5-10 min, then analyzed (λex 370 nm, λem 430 nm) on a fluorescence plate reader (Molecular Devices Spectramax M3).\nWe adapted a reported epoxide capture assay [Nelis, H. J. C. F.; Sinsheimer, J. E. (1981) A sensitive fluorimetric procedure for the determination of aliphatic epoxides under physiological conditions. Anal. Biochem. 115, 151-157.] to 96-well plate format to detect formation of the epoxyketone products semiquantitatively. Each β-ketoacid substrate 11 was incubated with recombinant, purified EpnF (1 h), then reacted with nicotinamide and acetophenone (1 h) to form a fluorescent 1,6-naphthyridinone 24. The fluorescent signals were normalized to that resulting from the known substrate β-ketoacid 11n as a positive control [Zabala, D.; Cartwright, J. W.; Roberts, D. M.; Law, B. J. C.; Song, L.; Samborskyy, M.; Leadlay, P. F.; Micklefield, J.; Challis, G. L. (2016) A flavin-dependent decarboxylase-dehydrogenase-monooxygenase assembles the warhead of α,β-epoxyketone proteasome inhibitors. J. Am. Chem. Soc. 138, 4342-4345.]."}, "U266 cells": {"tested_on": "U266 cells", "experiment": "In situ activation of β-ketoacid 11a by EpnF, cell viability, CellTitre-Glo, 48 h", "format": "cell-based", "conditions": "U266, 48 h", "procedure": "For in situ activation of β-ketoacid 11a by EpnF, U266 cells were seeded in a 96-well plate as above, at 20,000 cells per well in […] RPMI. Recombinant EpnF (100 μM in EpnF Buffer) was diluted in RPMI to 5 μM concentration (300 μL final volume), then 10 μL of this enzyme solution was added to the plate wells to 0.5 μM EpnF final concentration. Stock solutions (20 mM) of β-ketoacid 11a and epoxyketone 12a in EtOH or DMSO, respectively, were diluted to 5% EtOH or DMSO in RPMI to provide working stocks at 1 mM. The working stocks were log-diluted to 1 mM-0.05 μM using RPMI containing 5% EtOH or 5% DMSO, respectively. Aliquots of compounds (10 μL) were added to the sample wells for final concentrations of 100-0.005 μM. Separate negative control wells were treated with 10 μL of 5% EtOH or 5% DMSO in RPMI (0.5% final concentration). The cells were incubated for 48 hr, then cell viability was measured with the CellTitre-Glo assay. Results of compound-treated wells were normalized to negative control wells."}}, "data": [{"smiles": "CC(C)CCCCC(=O)N[C@@H](CO)C(=O)N[C@@H](CC(C)C)C(=O)C(C)(C)C(=O)O", "note": "[Compound 11a, (4S)-4-[(2S)-3-Hydroxy-2-(6-methylheptanamido)propanamido]-2,2,6-trimethyl-3-oxoheptanoic acid]", "values": [{"measurement": "half-life at 100 μM", "setting": "[1]; RPMI medium, RPMI, 37° C.", "value": 150, "unit": "min"}, {"measurement": "half-life", "setting": "[1]; deuterated PBS, PBS, 37° C.", "value": 0.188, "unit": "days"}, {"measurement": "stability / rate of decarboxylation (in words)", "setting": "[1]; neat at low temperatures, buffer or media at 37° C.", "value": "fairly stable when stored neat at low temperatures"}, {"measurement": "half-life", "setting": "[1]; neat lyophilized powder, neat, 4° C.", "value": "> 14", "unit": "days"}, {"measurement": "half-life", "setting": "[1]; neat lyophilized powder, neat, 25° C.", "value": 5, "unit": "days"}, {"measurement": "half-life", "setting": "[1]; neat lyophilized powder, neat, −20° C.", "value": "> 14", "unit": "days"}, {"measurement": "% remaining at last time point", "setting": "[1]; neat, 4° C.", "value": "d (80%)"}, {"measurement": "% remaining at last time point", "setting": "[1]; neat, −20° C.", "value": "d (95%)"}, {"measurement": "EpnF-catalyzed formation of epoxyketone (epoxide capture)", "setting": "EpnF", "value": "levels comparable to that of the positive control"}, {"measurement": "cytotoxicity of β-ketoacid activated in situ", "setting": "U266 cells; in presence of EpnF (0.5 μM)", "value": "cytotoxicity comparable to that of the corresponding isolated epoxyketone 12a"}, {"measurement": "no cytotoxicity at up to (concentration)", "setting": "U266 cells; prodrug alone, absence of EpnF", "value": "> 100", "unit": "µM"}]}]}
